Data from patent US7718846B2, “Animal models of long QT syndrome and uses thereof” (priority 2005, dated 2010).

Columns and labels:
[1] = system: IKs; details: experimental models in dogs; cited from earlier work
[2] = system: IKr; details: E4031 0.5 μM; cited from earlier work
[3] = system: rabbit left ventricular wedge preparation; details: 100 μM
Method: Shown are floating microelectrode recordings from an M cell in the subendocardial region of the wedge preparation and an ECG recorded across the bath.
Rabbits weighing 2.5 3.5 kg may be anticoagulated with heparin and anesthetized with pentobarbital (30-35 mg/kg, i.v.). Transmural wedges with dimensions of approximately 2×1.5×0.9 cm to 3×2×1.5 cm may be dissected from the left ventricle. The tissue may be cannulated via a small (diameter ˜100 μm) native branch of the left descending coronary artery and perfused with cardioplegic solution. Unperfused tissue may be carefully removed using a razor blade. […] A transmural ECG may be recorded using electrodes consisting of AgCl half cells attached to Tyrode's-filled tapered polyethylene electrodes which will be placed in the Tyrode's solution bathing the preparation, 1.0 to 1.5 cm from the epicardial and endocardial surfaces of the preparation, along the same vector as the transmembrane recordings. […] Transmembrane action potentials may be simultaneously recorded from epicardial, M, and endocardial sites using three to four separate intracellular floating microelectrodes (DC resistance: 10 to 20 MΩ) filled with 2.7 M KCl and connected to a high-input impedance amplifier. […]

[4] = system: LQT2; details: cited from earlier work
[5] = system: α1-adrenoreceptor; details: infusion, patient with LQTS; cited from earlier work
[6] = system: α1-adrenoreceptors; details: cited from earlier work
[7] = system: WT rabbits; details: Carlsson rabbit model; cited from earlier work

Structure (SMILES): CCS(=O)(=O)N(C)[C@H]1c2cc(C#N)ccc2OC(C)(C)[C@@H]1O (racemic) [chromanol 293B]
- TdP, spontaneous or in response to program stimulation [1]: never produced TdP

Structure (SMILES): Cc1cccc(CCN2CCC(C(=O)c3ccc(NS(C)(=O)=O)cc3)CC2)n1 [E4031, Benzenesulfonamide E-4031]
- APD [2]: > 1 s
- apex-to-base dispersion of repolarization [2]: marked enhancement of the apex-to-base dispersion of repolarization with reversal of repolarization

Structure (SMILES): CC(C)NC[C@@H](O)c1ccc(NS(C)(=O)=O)cc1 [d-sotalol]
- Action potential duration at 90% repolarization (APD90) [3]: 427 ms
- QT interval [3]: 467 ms

Structure (SMILES): CC(C)NCC(O)c1ccc(O)c(O)c1 (centres unmarked) [isoproterenol]
- duration of transient increase in TDR [4]: less than 2 minutes

Structure (SMILES): COc1ccc(OC)c(C(O)C(C)N)c1 (centres unmarked) [methoxamine]
- QTc [5]: prolong the QTc
- APD90 in tissues from the M region ([6]; canine wedge preparations): abbreviation of APD90
- APD90 in Purkinje fibers ([6]; canine): dose- and rate-dependent prolongation of APD90

Structure (SMILES): COc1cc2nc(N3CCN(C(=O)c4ccco4)CC3)nc(N)c2cc1OC [prazosin]
- suppression of arrhythmias by pretreatment [7]: as effective as pretreatment with propranolol in suppressing the arrhythmias

Structure (SMILES): CC(C)NCC(O)COc1cccc2ccccc12 (centres unmarked) [propranolol]
- suppression of arrhythmias by pretreatment [7]: suppressing the arrhythmias
